Reference: ChEMBL document CHEMBL4507319 (2021)

Columns and labels:
Conditions in all cases: Compound concentration 1.0 uM
[1] = target: T1, Testis-specific serine/threonine-protein kinase 3 (Homo sapiens) (UniProt Q96PN8); assay: TSSK3(h) Eurofins kinase panel
T1 sequence (whole entry): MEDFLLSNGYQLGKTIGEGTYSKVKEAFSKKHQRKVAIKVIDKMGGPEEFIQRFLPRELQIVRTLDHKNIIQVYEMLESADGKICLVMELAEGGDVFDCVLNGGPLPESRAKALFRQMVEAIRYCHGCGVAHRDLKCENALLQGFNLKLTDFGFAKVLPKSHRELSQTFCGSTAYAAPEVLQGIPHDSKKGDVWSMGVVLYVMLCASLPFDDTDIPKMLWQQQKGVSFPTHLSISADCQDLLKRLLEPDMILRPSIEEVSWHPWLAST

[2] = target: Serine/threonine-protein kinase VRK2 (Homo sapiens) (UniProt Q86Y07); assay: VRK2(h) Eurofins kinase panel
Sequence of Serine/threonine-protein kinase VRK2 (Homo sapiens) (Q86Y07 whole entry): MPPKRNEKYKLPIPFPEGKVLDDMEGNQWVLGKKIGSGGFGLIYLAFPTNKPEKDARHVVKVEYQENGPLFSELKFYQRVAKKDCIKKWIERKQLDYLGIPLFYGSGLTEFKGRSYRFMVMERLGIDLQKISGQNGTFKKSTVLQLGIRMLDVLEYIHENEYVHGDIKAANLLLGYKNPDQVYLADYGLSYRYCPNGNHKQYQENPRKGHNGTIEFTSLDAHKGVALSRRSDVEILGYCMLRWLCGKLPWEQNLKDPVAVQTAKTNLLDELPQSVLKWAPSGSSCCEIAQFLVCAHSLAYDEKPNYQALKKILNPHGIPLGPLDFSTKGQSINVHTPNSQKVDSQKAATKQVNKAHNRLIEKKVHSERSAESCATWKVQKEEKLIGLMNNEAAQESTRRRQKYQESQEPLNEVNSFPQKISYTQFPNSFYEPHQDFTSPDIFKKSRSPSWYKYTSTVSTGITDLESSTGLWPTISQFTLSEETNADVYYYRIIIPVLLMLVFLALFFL

[3] = target: T2, Mitogen-activated protein kinase 12 (Homo sapiens) (UniProt P53778); assay: SAPK3(h) Eurofins kinase panel
T2 sequence (whole entry): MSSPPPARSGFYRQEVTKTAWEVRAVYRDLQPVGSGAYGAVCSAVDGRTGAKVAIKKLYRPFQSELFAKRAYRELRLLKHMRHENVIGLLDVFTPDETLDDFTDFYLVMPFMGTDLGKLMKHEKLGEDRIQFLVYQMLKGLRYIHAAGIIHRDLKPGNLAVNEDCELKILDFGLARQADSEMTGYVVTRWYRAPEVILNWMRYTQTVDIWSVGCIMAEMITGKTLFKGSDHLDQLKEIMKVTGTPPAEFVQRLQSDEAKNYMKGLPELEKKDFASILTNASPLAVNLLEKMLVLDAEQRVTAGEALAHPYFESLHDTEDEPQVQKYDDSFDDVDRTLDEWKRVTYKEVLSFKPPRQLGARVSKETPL

[4] = target: Dual specificity tyrosine-phosphorylation-regulated kinase 1B (Homo sapiens) (UniProt Q9Y463); assay: DYRK1B(h) Eurofins kinase panel
Sequence of Dual specificity tyrosine-phosphorylation-regulated kinase 1B (Homo sapiens) (Q9Y463 whole entry, looked up): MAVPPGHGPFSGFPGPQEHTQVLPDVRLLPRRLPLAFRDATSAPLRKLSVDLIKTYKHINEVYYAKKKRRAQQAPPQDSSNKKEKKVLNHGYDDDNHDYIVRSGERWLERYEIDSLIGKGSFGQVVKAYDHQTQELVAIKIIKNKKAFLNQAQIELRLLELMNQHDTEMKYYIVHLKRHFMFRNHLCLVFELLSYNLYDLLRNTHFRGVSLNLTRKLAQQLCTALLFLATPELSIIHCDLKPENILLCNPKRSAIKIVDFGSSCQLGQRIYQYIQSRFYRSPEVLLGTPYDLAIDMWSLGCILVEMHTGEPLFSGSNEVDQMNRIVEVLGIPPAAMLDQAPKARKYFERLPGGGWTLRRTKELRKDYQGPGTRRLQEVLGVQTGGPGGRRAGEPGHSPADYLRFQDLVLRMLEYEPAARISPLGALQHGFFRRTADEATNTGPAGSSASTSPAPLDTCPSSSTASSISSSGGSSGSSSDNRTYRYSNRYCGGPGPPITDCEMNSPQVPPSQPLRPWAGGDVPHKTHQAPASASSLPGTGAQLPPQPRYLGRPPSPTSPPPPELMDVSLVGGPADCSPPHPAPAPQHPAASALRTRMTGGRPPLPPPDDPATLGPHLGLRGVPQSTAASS

[5] = target: cAMP-dependent protein kinase catalytic subunit alpha (Homo sapiens) (UniProt P17612); assay: PKA(h) Eurofins kinase panel
[6] = target: Serine/threonine-protein kinase PAK 3 (Homo sapiens) (UniProt O75914); assay: PAK3(h) Eurofins kinase panel
Sequence of Serine/threonine-protein kinase PAK 3 (Homo sapiens) (O75914 whole entry, looked up): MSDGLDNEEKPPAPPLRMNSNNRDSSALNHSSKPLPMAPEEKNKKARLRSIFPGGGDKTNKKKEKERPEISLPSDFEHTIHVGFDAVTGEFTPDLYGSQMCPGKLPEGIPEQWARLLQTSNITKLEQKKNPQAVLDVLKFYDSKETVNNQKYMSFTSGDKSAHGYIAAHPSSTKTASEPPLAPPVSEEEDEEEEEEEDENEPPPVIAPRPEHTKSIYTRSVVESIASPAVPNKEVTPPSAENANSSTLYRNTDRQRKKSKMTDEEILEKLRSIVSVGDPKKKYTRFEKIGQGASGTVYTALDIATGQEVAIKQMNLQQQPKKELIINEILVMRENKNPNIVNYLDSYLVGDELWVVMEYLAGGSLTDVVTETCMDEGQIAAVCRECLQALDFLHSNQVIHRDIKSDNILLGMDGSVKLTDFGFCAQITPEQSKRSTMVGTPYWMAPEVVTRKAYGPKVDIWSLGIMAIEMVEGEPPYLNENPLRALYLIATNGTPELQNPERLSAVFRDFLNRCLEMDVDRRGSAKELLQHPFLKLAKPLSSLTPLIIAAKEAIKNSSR

[7] = target: T3, Serine/threonine-protein kinase Nek1 (Homo sapiens) (UniProt Q96PY6); assay: NEK1(h) Eurofins kinase panel
T3 sequence (whole entry): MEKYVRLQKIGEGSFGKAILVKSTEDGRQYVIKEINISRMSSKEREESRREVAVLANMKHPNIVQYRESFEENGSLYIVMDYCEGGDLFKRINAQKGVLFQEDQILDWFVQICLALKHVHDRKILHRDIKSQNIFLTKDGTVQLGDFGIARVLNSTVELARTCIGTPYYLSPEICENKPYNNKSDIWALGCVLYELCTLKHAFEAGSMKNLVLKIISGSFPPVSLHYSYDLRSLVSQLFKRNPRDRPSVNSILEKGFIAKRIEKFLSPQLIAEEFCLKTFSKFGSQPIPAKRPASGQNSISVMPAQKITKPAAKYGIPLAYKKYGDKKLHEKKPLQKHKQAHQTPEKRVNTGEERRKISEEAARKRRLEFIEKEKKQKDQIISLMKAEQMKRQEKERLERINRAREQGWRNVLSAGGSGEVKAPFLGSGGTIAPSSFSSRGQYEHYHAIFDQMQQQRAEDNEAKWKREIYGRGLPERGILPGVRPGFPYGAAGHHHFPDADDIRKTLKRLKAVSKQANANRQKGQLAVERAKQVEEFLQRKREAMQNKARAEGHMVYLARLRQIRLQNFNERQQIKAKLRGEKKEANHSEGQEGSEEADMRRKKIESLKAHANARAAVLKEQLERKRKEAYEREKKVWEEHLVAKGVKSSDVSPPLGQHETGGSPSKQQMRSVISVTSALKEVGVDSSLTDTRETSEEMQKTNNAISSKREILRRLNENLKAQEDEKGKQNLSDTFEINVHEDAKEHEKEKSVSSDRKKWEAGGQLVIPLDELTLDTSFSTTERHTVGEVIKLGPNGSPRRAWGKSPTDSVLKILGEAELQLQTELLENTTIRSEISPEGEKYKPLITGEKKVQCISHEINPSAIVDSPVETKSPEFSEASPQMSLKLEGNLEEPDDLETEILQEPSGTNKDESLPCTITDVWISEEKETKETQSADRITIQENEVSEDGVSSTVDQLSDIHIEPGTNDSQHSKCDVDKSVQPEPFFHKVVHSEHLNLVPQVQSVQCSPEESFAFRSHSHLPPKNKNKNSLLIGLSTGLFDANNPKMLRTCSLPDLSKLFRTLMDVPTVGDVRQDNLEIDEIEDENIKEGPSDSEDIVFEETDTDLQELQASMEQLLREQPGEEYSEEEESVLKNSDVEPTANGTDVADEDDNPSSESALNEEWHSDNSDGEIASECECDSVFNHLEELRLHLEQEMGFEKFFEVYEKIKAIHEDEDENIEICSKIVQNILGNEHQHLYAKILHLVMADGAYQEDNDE

[8] = target: T4, cGMP-dependent protein kinase 1 (Homo sapiens) (UniProt Q13976); assay: PKG1beta (h) Eurofins kinase panel
T4 sequence (whole entry): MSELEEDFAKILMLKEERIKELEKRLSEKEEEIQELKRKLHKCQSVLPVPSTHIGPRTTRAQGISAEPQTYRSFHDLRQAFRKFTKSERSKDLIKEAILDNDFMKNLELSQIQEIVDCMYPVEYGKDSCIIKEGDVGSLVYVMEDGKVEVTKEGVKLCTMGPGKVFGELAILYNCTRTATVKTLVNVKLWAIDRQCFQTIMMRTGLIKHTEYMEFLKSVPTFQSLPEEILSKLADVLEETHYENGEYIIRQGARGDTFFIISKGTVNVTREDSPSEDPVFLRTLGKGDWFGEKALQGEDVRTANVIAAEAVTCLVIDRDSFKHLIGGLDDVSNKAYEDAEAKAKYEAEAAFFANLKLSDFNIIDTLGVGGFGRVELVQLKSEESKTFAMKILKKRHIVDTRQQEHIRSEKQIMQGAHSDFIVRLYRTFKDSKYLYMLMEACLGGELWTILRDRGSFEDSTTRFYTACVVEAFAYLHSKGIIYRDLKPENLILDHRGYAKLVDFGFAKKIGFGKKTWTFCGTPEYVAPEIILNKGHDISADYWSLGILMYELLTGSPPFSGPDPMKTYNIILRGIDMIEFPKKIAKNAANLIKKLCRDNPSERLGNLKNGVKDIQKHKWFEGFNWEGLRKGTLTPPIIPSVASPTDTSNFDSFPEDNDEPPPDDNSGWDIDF

Measured: % residual kinase activity

CCc1ccccc1C(=O)Nc1n[nH]c2c(C)c(F)c(C3C(C#N)=C(C)N(C)C(C)=C3C#N)cc12 [BAY-3827]
inactive: [1] 110% | [2] 98% | [3] 106% | [4] 99% | [5] 103% | [6] 100% | [7] 102% | [8] 78%
